Experimental data from patent publication US20260103679A1, “COMPOSITIONS COMPRISING REGULATORY T CELLS AND METHODS OF USING THE SAME” (Cellenkos, Inc., priority 2021, published 2026).

Test system: xenogeneic mouse graft versus host disease (GVHD) model
Settings: in vivo
Description: FIG. 33 depicts a schematic for treatment of a xenogeneic mouse graft versus host disease (GVHD) model with a ruxolitinib and activated Treg cells regimen. PBMC=peripheral blood mononuclear cells.
A xenogeneic mouse graft versus host disease (GVHD) model was treated with a ruxolitinib and activated CB Treg cells regimen, as depicted in FIG. 33. NSG mice underwent sublethal irradiation on day −1 followed by injection of 1×10^7 donor peripheral blood (PB) mononuclear cells (MNCs) on day 0. Oral ruxolitinib at 1 mg daily was fed continuously to the mice in the presence or absence of 1×10^7 CB Treg cells, tagged with CellTrace™ Violet dye (ThermoFisher), administered on days +4, +7, +11, +18. Mice were followed every other day for weight, GVHD score and survival. Serial blood draws were performed to analyze for cell compartment and cytokine assays.

N#CC[C@H](C1CCCC1)n1cc(-c2ncnc3[nH]ccc23)cn1 [ruxolitinib]
CB Treg persistence: improved
